Structures can show the parent of a compound that is named as a salt. Where two headings read alike, the source gives them in different places.
Tested on: HIV-1 NL4-3 strain
Test: Evaluation of antiviral activity: acute infection system of MT-4 cell with HIV-1 NL4-3 strain
Format: cell-based
Conditions: Human immunodeficiency virus 1, NL43, MT4, 120 h
[1] = antiviral activity, MT-4 cells infected with HIV-1 NL4-3 (MOI 0.05), 5 days culture, Cell Titer-Glo luminescence, read-out: EC50
[2] = read-out: antiviral activity (EC50), MT-4 cells infected with HIV-1 NL4-3 strain (MOI 0.05), cultured 5 days, Cell Titer-Glo

Row | Compound | EC50 [1] | also measured
1 | CCN1C[C@]2(C[C@H](OC)C2)n2cc(C(=O)NCc3ccc(F)cc3F)c(=O)c(O)c2C1=O [Example S20, N-(2,4-difluorobenzyl)-2′-ethyl-9′-hydroxy-cis-3-methoxy-1′,8′-dioxo-1′,2′,3′,8′-tetrahydrospiro[cyclobutane-1,4′-pyrido[1,2-a]pyrazine]-7′-carboxamide hydrochloride] | 3.5 nM | 
2 | CCN1C(=O)c2c(O)c(=O)c(C(=O)NCc3cccc(Cl)c3F)cn2C[C@]12C[C@H]2COC [Example 18, (1R,2R)—N-(3-chloro-2-fluorobenzyl)-2′-ethyl-9′-hydroxy-2-(methoxymethyl)-1′,8′-dioxo-1′,2′,4′,8′-tetrahydrospiro[cyclopropane-1,3′-pyrido[1,2-a]pyrazine]-7′-carboxamide] | 2.6 nM | 
3 | CN1C[C@]2(C[C@H](OCc3ccccc3)C2)n2cc(C(=O)NCc3ccc(F)cc3F)c(=O)c(O)c2C1=O [Example S10, cis-3-(benzyloxy)-N-(2,4-difluorobenzyl)-9′-hydroxy-2′-methyl-1′,8′-dioxo-1′,2′,3′,8′-tetrahydrospiro[cyclobutane-1,4′-pyrido[1,2-a]pyrazine]-7′-carboxamide hydrochloride] | 6.1 nM | 
4 | CC(C)N1C[C@]2(C[C@H](C(=O)N(C)C)C2)n2cc(C(=O)NCc3ccc(F)cc3F)c(=O)c(O)c2C1=O [Example S31, N^7′-(2,4-difluorobenzyl)-9′-hydroxy-2′-isopropyl-N^3-N^3-dimethyl-1′,8′-dioxo-1′,2′,3′,8′-tetrahydrospiro[cyclobutane-1,4′-pyrido[1,2-a]pyrazine]- cis-3,7′-dicarboxamide hydrochloride] |  | EC50 (MT-4 cells infected with HIV-1 NL4-3 strain (MOI 0.05), cultured 5 days, Cell Titer-Glo, read-out: antiviral activity (EC50)): 24 nM
5 | CCN1C[C@]2(C[C@H]2CO)n2cc(C(=O)NCc3ccc(F)cc3F)c(=O)c(O)c2C1=O [Example T10, (1R,2R)-N-(2,4-difluorobenzyl)-2′-ethyl-9′-hydroxy-2-(hydroxymethyl)-1′,8′-dioxo-1′,2′,3′,8′-tetrahydrospiro[cyclopropane-1,4′-pyrido[1,2-a]pyrazine]-7′-carboxamide hydrochloride] |  | EC50 [2]: 16 nM
6 | CO[C@H]1C[C@]2(CN(C)C(=O)c3c(O)c(=O)c(C(=O)NCc4ccc(F)cc4F)cn32)C1 [Example S14, N-(2,4-difluorobenzyl)-9′-hydroxy-cis-3-methoxy-2′-methyl-1′,8′-dioxo-1′,2′,3′,8′-tetrahydrospiro[cyclobutane-1,4′-pyrido[1,2-a]pyrazine]-7′-carboxamide hydrochloride] | 3.9 nM | 
7 | COC[C@@H]1C[C@]12Cn1cc(C(=O)NCc3cccc(Cl)c3F)c(=O)c(O)c1C(=O)N2C [Example T50, (1R,2R)-N-(3-chloro-2-fluorobenzyl)-9′-hydroxy-2-(methoxymethyl)-2′-methyl-1′,8′-dioxo-1′,2′,4′,8′-tetrahydrospiro[cyclopropane-1,3′-pyrido[1,2-a]pyrazine]-7′-carboxamide hydrochloride] |  | EC50 [2]: 3.7 nM
